Experimental data published in paper PMC11079024, “Identification of a family of species-selective complex I inhibitors as potential anthelmintics” (Nature Communications, 2024).
Values joined by “and” are separate entries in the source; they are usually repeats but may differ in a detail not shown here. Equal entries are not always repeated. Where two headings read alike, the source gives them in different places.

What was measured:
[1] = tested on: L1 C. briggsae (AF16); assay: Liquid development and viability assay, C. briggsae; type: cell-based, Caenorhabditis briggsae; conditions: liquid growth and development assay, 1 = like DMSO control, 0 = death
Text: (§1) Supplementary Figure 9. Class A, B, and C benzimidazoles inhibit complex I of several Clade V nematode species in vitro. […]
(§2) against the in vitro complex I activity from C. elegans, C. briggsae, P. pacificus, and P. hermaphrodita […]
(§3) L1 C. elegans (N2), C. briggsae (AF16), and P. pacificus (PS312) in a nematode liquid growth and development assay. The colour-coded scale denotes the viability of nematodes following drug treatment relative to DMSO controls; white/pale-yellow indicates nematode growth and viability similar to DMSO controls and red indicates nematode death and arrested development. Data are the mean of at least three biological replicates. Due to seemingly poor growth in liquid culture, P. hermaphrodita was not tested in the liquid viability and development assay.
(§4) Supplementary Figure 9 (continued). Davie et al.

[2] = tested on: L1 P. pacificus (PS312); assay: Liquid development and viability assay, P. pacificus; type: cell-based, Pristionchus pacificus; conditions: liquid growth and development assay, 1 = like DMSO control, 0 = death
Text: as §1, §2, §3, §4

[3] = tested on: L1 wild-type C. elegans; assay: 15-hour motility assay with drug alone (no KCN); type: cell-based, Caenorhabditis elegans
[4] = tested on: H. polygyrus; conditions: cited from earlier work
[5] = target: H. sapiens (HEK293 cells) complex I (Homo sapiens, UniProt O75251+O75306+P03886); assay: In vitro complex I activity assay, HEK293 cell mitochondria; type: biochemical
Chain of H. sapiens (HEK293 cells) complex I (O75251 39-213): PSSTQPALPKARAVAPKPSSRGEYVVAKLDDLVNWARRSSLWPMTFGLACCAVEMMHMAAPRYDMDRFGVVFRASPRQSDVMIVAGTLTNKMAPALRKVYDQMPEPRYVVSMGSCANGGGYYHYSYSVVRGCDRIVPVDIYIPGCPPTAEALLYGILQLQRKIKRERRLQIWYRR
Chain of H. sapiens (HEK293 cells) complex I (P03886 whole entry): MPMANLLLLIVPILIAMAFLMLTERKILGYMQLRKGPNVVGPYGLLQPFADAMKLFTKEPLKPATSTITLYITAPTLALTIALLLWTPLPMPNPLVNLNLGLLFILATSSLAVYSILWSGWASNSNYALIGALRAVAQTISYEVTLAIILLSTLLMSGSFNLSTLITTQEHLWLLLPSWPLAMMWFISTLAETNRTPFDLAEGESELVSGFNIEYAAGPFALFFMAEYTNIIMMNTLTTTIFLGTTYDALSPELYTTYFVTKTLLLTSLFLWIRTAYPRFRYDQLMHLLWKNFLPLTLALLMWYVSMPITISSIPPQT
Chain of H. sapiens (HEK293 cells) complex I (O75306 34-463): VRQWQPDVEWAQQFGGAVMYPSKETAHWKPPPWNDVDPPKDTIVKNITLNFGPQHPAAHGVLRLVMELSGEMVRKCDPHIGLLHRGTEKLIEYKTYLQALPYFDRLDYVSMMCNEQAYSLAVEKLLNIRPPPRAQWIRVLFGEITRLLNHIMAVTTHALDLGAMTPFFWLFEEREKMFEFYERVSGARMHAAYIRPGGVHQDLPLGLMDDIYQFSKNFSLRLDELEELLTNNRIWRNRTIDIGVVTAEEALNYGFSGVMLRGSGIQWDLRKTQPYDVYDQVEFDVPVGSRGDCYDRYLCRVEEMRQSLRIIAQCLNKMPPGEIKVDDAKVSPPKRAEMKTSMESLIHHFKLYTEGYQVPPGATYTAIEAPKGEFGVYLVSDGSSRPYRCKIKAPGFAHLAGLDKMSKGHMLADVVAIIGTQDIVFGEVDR

[6] = tested on: C. elegans ben-1 mutant strains ECA882, ECA917, ECA1075, ECA1080, CB3474; type: cell-based, Caenorhabditis elegans; conditions: score 0-1 relative to DMSO, values >1 set to 1
[7] = 15 hour drug alone (without KCN) treatment, dose 0.1 µM, Mean of replicates
[8] = 15 hour drug alone (without KCN) treatment, dose 0.1 µM, individual replicates
[9] = 15 hour drug alone (without KCN) treatment, dose 0.2 µM, Mean of replicates
[10] = 15 hour drug alone (without KCN) treatment, dose 0.2 µM, individual replicates
[11] = 15 hour drug alone (without KCN) treatment, dose 0.4 µM, Mean of replicates
[12] = 15 hour drug alone (without KCN) treatment, dose 0.4 µM, individual replicates
[13] = 15 hour drug alone (without KCN) treatment, dose 0.8 µM, Mean of replicates
[14] = 15 hour drug alone (without KCN) treatment, dose 0.8 µM, individual replicates
[15] = 15 hour drug alone (without KCN) treatment, dose 3.1 µM, Mean of replicates
[16] = 15 hour drug alone (without KCN) treatment, dose 3.1 µM, individual replicates
[17] = 15 hour drug alone (without KCN) treatment, dose 6.3 µM, Mean of replicates
[18] = 15 hour drug alone (without KCN) treatment, dose 6.3 µM, individual replicates
[19] = 15 hour drug alone (without KCN) treatment, dose 12.5 µM, Mean of replicates
[20] = 15 hour drug alone (without KCN) treatment, dose 12.5 µM, individual replicates
[21] = 15 hour drug alone (without KCN) treatment, dose 25 µM, Mean of replicates
[22] = 15 hour drug alone (without KCN) treatment, dose 25 µM, individual replicates
[23] = 15 hour drug alone (without KCN) treatment, dose 50 µM, Mean of replicates
[24] = 15 hour drug alone (without KCN) treatment, dose 50 µM, individual replicates
[25] = 15 hour drug alone (without KCN) treatment, dose 100 µM, Mean of replicates
[26] = 15 hour drug alone (without KCN) treatment, dose 100 µM, individual replicates

Cc1nc2ccccc2n1Cc1ccc(Cl)cc1 [STK697993]
viability score (0-1) relative to DMSO controls ([1]; 2 µM): 1.000
viability score (0-1) relative to DMSO controls ([1]; 3.9 µM): 1.000
viability score (0-1) relative to DMSO controls ([1]; 15.6 µM): 1.000
viability score (0-1) relative to DMSO controls ([1]; 31.3 µM): 0.341
viability score (0-1) relative to DMSO controls ([1]; 62.5 µM): 0.009
viability score (0-1) relative to DMSO controls ([1]; 125 µM): 0.017
viability score (0-1) relative to DMSO controls ([1]; 250 µM): 0.008
viability score (0-1) relative to DMSO controls ([2]; 2 µM): 1.000
viability score (0-1) relative to DMSO controls ([2]; 3.9 µM): 1.000
viability score (0-1) relative to DMSO controls ([2]; 15.6 µM): 0.943
viability score (0-1) relative to DMSO controls ([2]; 31.3 µM): 0.0076
viability score (0-1) relative to DMSO controls ([2]; 62.5 µM): 0.000
viability score (0-1) relative to DMSO controls ([2]; 125 µM): 0.007
viability score (0-1) relative to DMSO controls ([2]; 250 µM): 0.026

O=C(NCCc1ccc(Cl)cc1)c1ccccc1C(F)(F)F [Wact-11]
Value relative to DMSO control, drug alone (without KCN) [3]: 0.932
Value relative to DMSO control, drug alone (without KCN) [3, 7]: 1.053
Value relative to DMSO control, drug alone (without KCN) [3, 8]: 0.994 and 1.015 and 1.070 and 1.131
Value relative to DMSO control, drug alone (without KCN) [3, 9]: 1.080
Value relative to DMSO control, drug alone (without KCN) [3, 10]: 0.940 and 1.013 and 1.214 and 1.154
Value relative to DMSO control, drug alone (without KCN) [3, 11]: 1.046
Value relative to DMSO control, drug alone (without KCN) [3, 12]: 0.988 and 1.230 and 1.034
Value relative to DMSO control, drug alone (without KCN) [3, 13]: 1.007
Value relative to DMSO control, drug alone (without KCN) [3, 14]: 0.912 and 0.907 and 0.949 and 1.257
Value relative to DMSO control, drug alone (without KCN) [3, 15]: 0.983
Value relative to DMSO control, drug alone (without KCN) [3, 16]: 0.954 and 0.915 and 1.162 and 0.901
Value relative to DMSO control, drug alone (without KCN) [3, 17]: 0.923
Value relative to DMSO control, drug alone (without KCN) [3, 18]: 0.914 and 0.918 and 0.975 and 0.884
Value relative to DMSO control, drug alone (without KCN) [3, 19]: 0.780
Value relative to DMSO control, drug alone (without KCN) [3, 20]: 0.693 and 0.662 and 1.090 and 0.677
Value relative to DMSO control, drug alone (without KCN) [3, 21]: 0.783
Value relative to DMSO control, drug alone (without KCN) [3, 22]: 0.523 and 0.436 and 0.991 and 1.184
Value relative to DMSO control, drug alone (without KCN) [3, 23]: 0.600
Value relative to DMSO control, drug alone (without KCN) [3, 24]: 0.549 and 0.392 and 0.803 and 0.657
Value relative to DMSO control, drug alone (without KCN) [3, 25]: 0.425
Value relative to DMSO control, drug alone (without KCN) [3, 26]: 0.232 and 0.150 and 0.884 and 0.433

Cc1cc(O)c2c(c1)O[C@@]1(C)CC[C@H]3C(C)(C)CCC[C@]34CO[C@@H]2[C@H]41 [Siccanin]
Value relative to DMSO control, drug alone (without KCN) [3, 7]: 1.015
Value relative to DMSO control, drug alone (without KCN) [3, 8]: 1.185 and 1.067 and 1.014 and 0.891 and 0.918
Value relative to DMSO control, drug alone (without KCN) [3, 9]: 1.093
Value relative to DMSO control, drug alone (without KCN) [3, 10]: 1.232 and 1.040 and 1.048 and 0.936 and 1.206
Value relative to DMSO control, drug alone (without KCN) [3, 11]: 1.048
Value relative to DMSO control, drug alone (without KCN) [3, 12]: 1.109 and 1.211 and 1.036 and 0.917 and 0.964
Value relative to DMSO control, drug alone (without KCN) [3, 13]: 1.013
Value relative to DMSO control, drug alone (without KCN) [3, 14]: 1.207 and 1.062 and 0.959 and 0.891 and 0.945
Value relative to DMSO control, drug alone (without KCN) [3, 15]: 1.008
Value relative to DMSO control, drug alone (without KCN) [3, 16]: 1.037 and 1.098 and 0.979 and 0.904 and 1.020
Value relative to DMSO control, drug alone (without KCN) [3, 17]: 0.898
Value relative to DMSO control, drug alone (without KCN) [3, 18]: 0.890 and 0.970 and 0.950 and 0.655 and 1.026
Value relative to DMSO control, drug alone (without KCN) [3, 19]: 0.790
Value relative to DMSO control, drug alone (without KCN) [3, 20]: 1.073 and 0.897 and 0.844 and 0.477 and 0.657
Value relative to DMSO control, drug alone (without KCN) [3, 21]: 0.737
Value relative to DMSO control, drug alone (without KCN) [3, 22]: 0.991 and 0.757 and 0.575 and 0.705 and 0.658
Value relative to DMSO control, drug alone (without KCN) [3, 23]: 0.668
Value relative to DMSO control, drug alone (without KCN) [3, 24]: 0.587 and 0.826 and 0.603 and 0.513 and 0.810
Value relative to DMSO control, drug alone (without KCN) [3, 25]: 0.433
Value relative to DMSO control, drug alone (without KCN) [3, 26]: 0.545 and 0.463 and 0.295 and 0.375 and 0.488

COC(=O)Nc1nc2ccc(Sc3ccccc3)cc2[nH]1 [fenbendazole, reference compound]
reduction in H. polygyrus worm burden ([4]; single dose 100 mg/kg, mice): 90%

CC(C)Cc1ccc(C(C)c2nc3ccccc3n2C)cc1 (stereo not drawn) [NPD8790]
remaining activity at 0.06 µM ([5]; H. sapiens (HEK293 cells) mitochondria, 0.06 µM, Mean of replicates, read-out: in vitro complex I activity relative to solvent control): 90.2%
remaining activity at 0.13 µM ([5]; H. sapiens (HEK293 cells) mitochondria, 0.13 µM, Mean of replicates, read-out: in vitro complex I activity relative to solvent control): 78.3%
remaining activity at 0.313 µM ([5]; H. sapiens (HEK293 cells) mitochondria, 0.313 µM, Mean of replicates, read-out: in vitro complex I activity relative to solvent control): 76.7%
remaining activity at 0.625 µM ([5]; H. sapiens (HEK293 cells) mitochondria, 0.625 µM, Mean of replicates, read-out: in vitro complex I activity relative to solvent control): 129%
remaining activity at 1.5 µM ([5]; H. sapiens (HEK293 cells) mitochondria, 1.5 µM, Mean of replicates, read-out: in vitro complex I activity relative to solvent control): 95.7%
remaining activity at 3 µM ([5]; H. sapiens (HEK293 cells) mitochondria, 3 µM, Mean of replicates, read-out: in vitro complex I activity relative to solvent control): 102%
remaining activity at 15 µM ([5]; H. sapiens (HEK293 cells) mitochondria, 15 µM, Mean of replicates, read-out: in vitro complex I activity relative to solvent control): 85.1%
remaining activity at 37.5 µM ([5]; H. sapiens (HEK293 cells) mitochondria, 37.5 µM, Mean of replicates, read-out: in vitro complex I activity relative to solvent control): 52.8%
remaining activity at 75 µM ([5]; H. sapiens (HEK293 cells) mitochondria, 75 µM, Mean of replicates, read-out: in vitro complex I activity relative to solvent control): 61.5%
IC50 ([5]; mitochondria purified from HEK293 cells): > 75 µM

c1ccc2[nH]c(-c3cscn3)nc2c1 [Thiabendazole]
C. elegans L1 relative motility, 3-hour post 200 µM KCN dilution [6]: 1.000

COC(=O)Nc1nc2ccc(C(=O)c3ccccc3)cc2[nH]1 [mebendazole, reference compound]
C. elegans L1 relative motility, 3-hour post 200 µM KCN dilution [6]: 1.000
reduction in worm burden, H. polygyrus murine model ([4]; single 300 mg/kg dose): 63.5%
